The text below walks through data of patent US20130303509A1, “NAMPT INHIBITORS” (AbbVie Inc., priority 2012, published 2013).

The IC50 is the point on the concentration scale where inhibition reaches its midpoint. A high value points to weaker potency.

SMILES strings stand for the structures.

This assay concerns PC3 cells. The assay can be described thus: NAMPT Cell Proliferation Assay. In kind it is cell-based. The settings on record: Homo sapiens, PC-3, 120 h, 5 days incubation, cell viability by Cell Titer Glo. Summed up: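 Five-day CellTiter-Glo viability readout in PC3 cells grown in RPMI/10% heat-inactivated FBS. Compounds added after overnight attachment as a 10-fold dilution series, […]. Percent inhibition fitted to sigmoidal dose-response to derive IC50.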
As for `CC(C)C(C)C(=O)N1CCC(c2ccc(NC(=O)[C@H]3CCN(c4cccnn4)C3)cc2)CC1` (stereo partly drawn) [Example 680, (3S)-N-{4-[1-(2,3-dimethylbutanoyl)piperidin-4-yl]phenyl}-1-(pyridazin-3-yl)pyrrolidine-3-carboxamide], the midpoint of inhibition, the IC50, lay at 0.00355 µM.
The value for `COCCOCC(=O)N1CCC(c2ccc(NC(=O)C3CN(c4cccnn4)C3)cc2)CC1` [Example 335, N-(4-{1-[(2-methoxyethoxy)acetyl]piperidin-4-yl}phenyl)-1-(pyridazin-3-yl)azetidine-3-carboxamide] was 0.00607 µM; that for `O=C(Nc1ccc(OC2CCN(C(=O)c3cccc(C(F)(F)F)c3)CC2)cc1)C1CN(c2cccnn2)C1` [Example 222, 1-(pyridazin-3-yl)-N-[4-({1-[3-(trifluoromethyl)benzoyl]piperidin-4-yl}oxy)phenyl]azetidine-3-carboxamide] was 0.0155 µM.
The value for `O=C(Nc1ccc(O[C@@H]2CCN(C(=O)c3ccccc3F)C2)cc1)C1CN(c2ccnnc2)C1` [Example 472, N-(4-{[(3R)-1-(2-fluorobenzoyl)pyrrolidin-3-yl]oxy}phenyl)-1-(pyridazin-4-yl)azetidine-3-carboxamide] was 0.00656 µM; that for `O=C(Nc1ccc(O[C@@H]2CCN(C(=O)C3CCOCC3)C2)cc1)C1CN(c2cccnn2)C1` [Example 487, 1-(pyridazin-3-yl)-N-(4-{[(3R)-1-(tetrahydro-2H-pyran-4-ylcarbonyl)pyrrolidin-3-yl]oxy}phenyl)azetidine-3-carboxamide] was 0.072 µM; that for `O=C(Nc1ccc(O[C@@H]2CCN(C(=O)Cc3ccc(OC(F)(F)F)cc3)C2)cc1)C1CN(c2cccnn2)C1` [Example 488, 1-(pyridazin-3-yl)-N-(4-{[(3R)-1-{[4-(trifluoromethoxy)phenyl]acetyl}pyrrolidin-3-yl]oxy}phenyl)azetidine-3-carboxamide] was 0.0642 µM.
The value for `Cc1ccsc1C(=O)N1CCC(c2ccc(NC(=O)[C@H]3CCN(c4cccnn4)C3)cc2)CC1` [Example 679, (3S)-N-(4-{1-[(3-methylthiophen-2-yl)carbonyl]piperidin-4-yl}phenyl)-1-(pyridazin-3-yl)pyrrolidine-3-carboxamide] was 0.0006 µM; that for `O=C(Nc1ccc(C2CCN(C(=O)C3CC3)CC2)cc1)[C@H]1CCN(c2cccnn2)C1` [Example 662, (3S)-N-{4-[1-(cyclopropylcarbonyl)piperidin-4-yl]phenyl}-1-(pyridazin-3-yl)pyrrolidine-3-carboxamide] was 0.0159 µM.
Take `CCC(C)(C)C(=O)N1CCC(Oc2ccc(NC(=O)C3CN(c4cccnn4)C3)cc2)CC1` [Example 248, N-(4-{[1-(2,2-dimethylbutanoyl)piperidin-4-yl]oxy}phenyl)-1-(pyridazin-3-yl)azetidine-3-carboxamide]: half-maximal inhibition (IC50) required 0.00658 µM. Compared with the last compound, the IC50 is about 2.4-fold lower.
As for `CCC(C)CC(=O)N1CCC(c2ccc(NC(=O)C3CN(c4cccnc4C)C3)cc2)CC1` (stereo not drawn) [Example 160, N-{4-[1-(3-methylpentanoyl)piperidin-4-yl]phenyl}-1-(2-methylpyridin-3-yl)azetidine-3-carboxamide], the midpoint of inhibition, the IC50, lay at 0.173 µM. Against the preceding compound, the IC50 is about 26-fold higher.
For `Cc1ncccc1N1CC(C(=O)Nc2ccc(C3CCN(C(=O)CCN(C)C)CC3)cc2)C1` [Example 168, N-{4-[1-(N,N-dimethyl-beta-alanyl)piperidin-4-yl]phenyl}-1-(2-methylpyridin-3-yl)azetidine-3-carboxamide] the value was 1.01 µM.
The value for `CC(C)(C)C(=O)N1CCC(c2ccc(NC(=O)C3CN(c4cccnn4)C3)cc2)CC1` [Example 402, N-{4-[1-(2,2-dimethylpropanoyl)piperidin-4-yl]phenyl}-1-(pyridazin-3-yl)azetidine-3-carboxamide] was 0.00168 µM; that for `Cc1ncccc1N1CC(C(=O)Nc2ccc(C3CCN(C(=O)c4ccsc4)CC3)cc2)C1` [Example 169, 1-(2-methylpyridin-3-yl)-N-{4-[1-(thiophen-3-ylcarbonyl)piperidin-4-yl]phenyl}azetidine-3-carboxamide] was 0.0654 µM.
For `CC(C)(C)C(=O)N1CC[C@@H](Oc2ccc(NC(=O)[C@H]3CCN(c4cccnn4)C3)cc2)C1` [Example 780, (3S)-N-(4-{[(3R)-1-(2,2-dimethylpropanoyl)pyrrolidin-3-yl]oxy}phenyl)-1-(pyridazin-3-yl)pyrrolidine-3-carboxamide] the value was 0.00407 µM; for `O=C(Nc1ccc(O[C@@H]2CCN(C(=O)Cc3cccc(C(F)(F)F)c3)C2)cc1)C1CN(c2ccnnc2)C1` [Example 470, 1-(pyridazin-4-yl)-N-(4-{[(3R)-1-{[3-(trifluoromethyl)phenyl]acetyl}pyrrolidin-3-yl]oxy}phenyl)azetidine-3-carboxamide], 0.715 µM.
Regarding `CC(C)(C)C(=O)N1CCC(c2ccc(NC(=O)C3CN(c4ccc(F)nn4)C3)cc2)CC1` [Example 820, N-{4-[1-(2,2-dimethylpropanoyl)piperidin-4-yl]phenyl}-1-(6-fluoropyridazin-3-yl)azetidine-3-carboxamide], the IC50 amounted to 0.0754 µM.
The compound `CCOCC(=O)N1CCC(Oc2ccc(NC(=O)C3CN(c4cccnc4)C3)cc2)CC1` [Example 44, N-(4-{[1-(ethoxyacetyl)piperidin-4-yl]oxy}phenyl)-1-(pyridin-3-yl)azetidine-3-carboxamide] yielded an IC50 of 0.00547 µM.
For `CCCCC(=O)N1CCC(c2ccc(NC(=O)C3CN(c4cccnc4C)C3)cc2)CC1` [Example 159, 1-(2-methylpyridin-3-yl)-N-[4-(1-pentanoylpiperidin-4-yl)phenyl]azetidine-3-carboxamide] the value was 0.182 µM; for `CCC(C)(C)C(=O)N1CCC(c2ccc(NC(=O)C3CN(c4cccnc4C)C3)cc2)CC1` [Example 193, N-{4-[1-(2,2-dimethylbutanoyl)piperidin-4-yl]phenyl}-1-(2-methylpyridin-3-yl)azetidine-3-carboxamide], 0.071 µM.
For `O=C(Nc1ccc(C2CCN(C(=O)Cc3cccc(C(F)(F)F)c3)CC2)cc1)C1CN(c2ccnnc2)C1` [Example 550, 1-(pyridazin-4-yl)-N-[4-(1-{[3-(trifluoromethyl)phenyl]acetyl}piperidin-4-yl)phenyl]azetidine-3-carboxamide] the value was 0.00821 µM; for `O=C(Nc1ccc(C2CCN(C(=O)CCN3CCCCC3)CC2)cc1)C1CN(c2cccnc2)C1` [Example 130, N-(4-{1-[3-(piperidin-1-yl)propanoyl]piperidin-4-yl}phenyl)-1-(pyridin-3-yl)azetidine-3-carboxamide], 0.00181 µM; for `O=C(Nc1ccc(C2CCN(C(=O)Cc3cc(F)cc(F)c3)CC2)cc1)C1CN(c2ccnnc2)C1` [Example 532, N-(4-{1-[(3,5-difluorophenyl)acetyl]piperidin-4-yl}phenyl)-1-(pyridazin-4-yl)azetidine-3-carboxamide], 0.00724 µM.
The value for `CC(C)Cn1cc(-c2ccc(C(=O)N[C@@H]3CCN(c4ccc(Cl)nn4)C3)s2)cn1` [Example 619, N-[(3R)-1-(6-chloropyridazin-3-yl)pyrrolidin-3-yl]-5-[1-(2-methylpropyl)-1H-pyrazol-4-yl]thiophene-2-carboxamide] was over 10 µM; that for `Cc1ncccc1N1CC(C(=O)Nc2ccc(C3CCN(C(=O)c4cccc(Cl)c4)CC3)cc2)C1` [Example 153, N-{4-[1-(3-chlorobenzoyl)piperidin-4-yl]phenyl}-1-(2-methylpyridin-3-yl)azetidine-3-carboxamide] was 0.699 µM.
Compound `Cc1ccc(N2CC(C(=O)Nc3ccc(C4CCN(C(=O)c5ccccc5)CC4)cc3)C2)c(F)n1` [Example 668, N-[4-(1-benzoylpiperidin-4-yl)phenyl]-1-(2-fluoro-6-methylpyridin-3-yl)azetidine-3-carboxamide] displayed an IC50 of over 10 µM.
For `CC[C@H](C)C(=O)N1CCC(c2ccc(NC(=O)C3CN(c4cccnc4)C3)cc2)CC1` [Example 22, N-(4-{1-[(2S)-2-methylbutanoyl]piperidin-4-yl}phenyl)-1-(pyridin-3-yl)azetidine-3-carboxamide] the value was 0.00125 µM; for `CC1(C(=O)N2CCC(c3ccc(NC(=O)C4CN(c5cccnn5)C4)cc3)CC2)CC1` [Example 379, N-(4-{1-[(1-methylcyclopropyl)carbonyl]piperidin-4-yl}phenyl)-1-(pyridazin-3-yl)azetidine-3-carboxamide], 0.00107 µM.
In the case of `Cc1ncccc1N1CC(C(=O)Nc2ccc(C3CCN(C(=O)CC(F)(F)F)CC3)cc2)C1` [Example 182, 1-(2-methylpyridin-3-yl)-N-{4-[1-(3,3,3-trifluoropropanoyl)piperidin-4-yl]phenyl}azetidine-3-carboxamide], the IC50 is 0.0879 µM. This IC50 lies about 82-fold higher than the previous one.
For `O=C(Nc1ccc(C2(F)CCN(C(=O)c3ccccc3F)CC2)cc1)C1CN(c2cccnn2)C1` [Example 857, N-{4-[4-fluoro-1-(2-fluorobenzoyl)piperidin-4-yl]phenyl}-1-(pyridazin-3-yl)azetidine-3-carboxamide] the value was 0.00252 µM; for `CC(C)C(=O)N1CCC(Oc2ccc(NC(=O)[C@H]3CCN(c4cccnc4)C3)cc2)CC1` [Example 12, (3S)-N-(4-{[1-(2-methylpropanoyl)piperidin-4-yl]oxy}phenyl)-1-(pyridin-3-yl)pyrrolidine-3-carboxamide], 0.0844 µM.
The value for `CC(C)C(=O)N1CCC(c2ccc(C(=O)N[C@H]3CCN(c4cccnn4)C3)cc2)CC1` [Example 752, 4-[1-(2-methylpropanoyl)piperidin-4-yl]-N-[(3S)-1-(pyridazin-3-yl)pyrrolidin-3-yl]benzamide] was 2.45 µM; that for `O=C(Nc1ccc(O[C@@H]2CCN(C(=O)c3ccc(OC(F)(F)F)cc3)C2)cc1)C1CN(c2cccnn2)C1` [Example 519, 1-(pyridazin-3-yl)-N-[4-({(3R)-1-[4-(trifluoromethoxy)benzoyl]pyrrolidin-3-yl}oxy)phenyl]azetidine-3-carboxamide] was 0.00321 µM.
As to `CC(C)Cn1cc(-c2ccc(C(=O)N[C@H]3CCN(c4cccnn4)C3)o2)cn1` [Example 747, 5-[1-(2-methylpropyl)-1H-pyrazol-4-yl]-N-[(3S)-1-(pyridazin-3-yl)pyrrolidin-3-yl]furan-2-carboxamide], inhibition was half-maximal at 5.92 µM (IC50).
